The results in this text go back to patent EP0070133B1, “Secondary phenylethanol amines, processes for their preparation and their pharmaceutical application” (priority 1981, dated 1983).

Structures are written as SMILES. Counter-ions that a name gives are not always drawn. Like-named read-outs stand apart in the source and are kept apart here.

For experiment [1], the system named is platelet aggregation in human whole blood. Nature of the experiment: Collagen-induced platelet aggregation in human whole blood in vitro. In kind it is cell-based. The following applies: Final Concentration in Whole Blood 100 μM; collagen EC50 in presence of compound divided by control EC50. The method, then: Collagen-induced platelet aggregation in human whole blood in vitro.
Collagen added to stirred citrated blood causes platelet aggregation. As the platelets aggregate, the concentration of single platelets falls. […] Inhibitors of aggregation, such as aspirin and dipyridamole, reduce the response to collagen.
Collagen (Hormon-Chemie, Munich) or 154 mM NaCl (control) was added to each aliquot of blood stirred at 1100 rpm in an aggregometer at 37° after 3 mins pre-incubation with compound or appropriate solvent. Aggregates were fixed by addition of 0.5 vol 4.5% formaldehyde or 0.05 vol phosphate-buffered glutaraldehyde. Single platelets were counted electronically. Responses, expressed as per cent fall in platelet count, were obtained to a range of collagen concentrations. The concentration producing 50% maximal effect (EC50) was estimated from log10 concentration-response curves. Dose-ratios were calculated by dividing the EC50 obtained in the presence of compound under test by the control EC50.

Experiment [2] relates to Female CFLP mice. Nature of the experiment: Effect on energy expenditure and food intake of mice. It counts as in vivo. The following applies: Mus musculus, po, 21 h.
Experimental: Female CFLP mice each weighing approximately 24 g, were given food and water ad lib before and during the experiment. The compounds were dissolved in water by addition of one mole of hydrochloric acid per mole of compound and these solutions were administered orally to each of 12 mice. A further 12 mice were dosed orally with water. The mice were placed in boxes through which air was drawn and the oxygen content of the air leaving the boxes was measured. […] The food intake of the mice was measured over this same period of 21 hours. The results are expressed as a percentage of the mean food intake or rate of energy expenditure of the mice dosed with water.
Experiment [3] deals with rat ear. Nature of the experiment: Anti-inflammatory activity: croton oil induced inflammation of the rat ear. It counts as in vivo. Conditions: 1.35 mg/rat ear, topical in 1% croton oil in tetrahydrofuran, ear weight after 6 hours; active = significant (5% level) reduction. The method, then:
The method used is based on that described by G. Tonelli eta/ (Endocrinology, 77, 625-634, 1965). An inflammation is induced in the rat ear by the application of 50 µl of a 1% solution of croton oil in tetrahydrofuran, test compounds being dissolved in the irritant vehicle. After 6 hours the inflammation is assessed by killing the animals and weighing the ears. Topical anti-inflammatory activity of a compound is generally considered to be shown when a significant (5% level) reduction in ear weight is seen compared to non-drug treated control.

Experiment [4] concerns Female CFLP mice. Nature of the experiment: Anti-hyperglycaemic activity: subcutaneous glucose load in fasted mice, area under blood glucose curve. It counts as in vivo. The following applies: 1 μ moles/kg po, glucose 1 g/kg sc, 2 hour period, vs water control. The procedure:
Female CFLP mice, each weighing approximately 25 g, were fasted for 24 hours prior to the study. The compounds under study were administered orally as an aqueous solution to each of 6 mice. 6 mice were given water as a control. 30 minutes later a blood sample (20 µl) was obtained from the tail for the analysis of blood glucose. Immediately after taking this blood sample, glucose (1 g/kg body weight) was administered subcutaneously to each mouse. Blood samples were then obtained from each mouse at 30 minute intervals for 120 minutes.
Compounds that produced a significant (P<0.05) reduction of blood glucose, compared with control mice given water, at any time interval, were considered active. The area under the blood glucose curve over the 2 hour period after the administration of the glucose was calculated for each compound and compared with the value for control animals.

The subject of experiment [5] is Rat hearts. Nature of the experiment: Cardiac activity: rat hearts perfused by the Langendorff procedure. The following applies: Rattus norvegicus. The method, then:
Rat hearts were perfused by the Langendorff procedure as follows:- • Hearts were dissected free within 30 seconds of death and reverse perfused via the aorta and coronary vessels with Krebs-Ringer bicarbonate solution (pH 7.4, 37°C) gassed with 95% oxygen:5% carbon dioxide at a flow rate between 8-12 cm^3/minute. Responses were observed after injection of drug dissolved in isotonic saline into the perfusion media.
Results are expressed as a percentage of the maximum response due to salbutamol.

For experiment [6], the system named is genetically obese mice. Nature of the experiment: Anti-obesity activity: carcass composition after 28 days of daily dosing. In kind it is in vivo. Conditions: 15.8 mg/kg p.o. daily for 28 days, Control 19.89. The method, then:
The compounds were administered by oral gavage in water or carboxymethyl-cellulose suspension to genetically obese mice daily for 28 days. At the end of the time the carcass composition was determined. The results obtained were as follows:-

[7] abbreviates: read-out: Mean Energy Expenditure (%).

Turning to `CNCCOc1ccc(C[C@@H](C)NC[C@H](O)c2cccc(C(F)(F)F)c2)cc1` [Example 24, N-[2-(4-(2-Methylaminoethoxy)phenyl)-1-methylethyl]-2-hydroxy-2-(3-trifluoromethylphenyl)ethanamine dihydrochloride (RR,SS) diastereoisomer], the Dose-Ratio in experiment [1] is reported as 5.9. Also, the response vs control in vivo at 6.6 mg/kg was found to be 139% in experiment [2] (setting [7]) and 102% in experiment [2] (read-out: Mean Food Intake (%)). In addition, the outcome in experiment [3] was Active. Further, the “Reduction in area under Blood glucose curve (%)” value in experiment [4] was 47%.
In the case of `Br.Br.CNCCOc1ccc(CC(C)NCC(O)c2cccc(Br)c2)cc1` (stereo not drawn) [Example 8, N-[2-(4-(2-Methylaminoethoxy)phenyl)-1-methylethyl]-2-hydroxy-2-(3-bromophenyl)ethanamine dihydrobromide], the Dose-Ratio in experiment [1] came out at 4.8. In addition, the response vs control in vivo at 31.6 mg/kg is 135% in experiment [2] (setting [7]) and 97% in experiment [2] (read-out: Mean Food Intake (%)). The results for the Emax at 0.01 mg in experiment [5] (read-out: Heart Rate) and in experiment [5] (read-out: Heart Tension) were 73% and 20%, respectively. In experiment [6], the “g Lipid/Mouse Treated” value is on record as 17.91 g Lipid/Mouse. Besides, the “Reduction in area under Blood glucose curve (%)” value in experiment [4] is listed as 51%.
